pIC50: −log10 of the molar value.

Series [1] addresses BACE 1 (beta secretase enzyme) (Homo sapiens, UniProt P56817). The series is described as follows: In vitro enzymatic BACE FRET assay. It is filed as biochemical. To be noted: average IC50, pH 4.2. Here is the method:
In Vitro Enzymatic BACE FRET (Fluorescence Resonance Energy Transfer) Assay
The assay buffer used in this screen is 0.05 M acetate, pH 4.2, 10% DMSO final, 100 uM genapol (which is a nonionic detergent, below its Critical Micelle Concentration). The beta secretase enzyme (0.2 nM) is pre-incubated for one hour with inhibitors, typically in about 1 uL of DMSO according to a serial dilution, are added thereto. This assay is effectively started by the addition of FRET substrate (50 nM) and the combination is incubated for one hour. The FRET assay is terminated with by addition of Tris buffer, which raises the pH to neutrality, and the fluorescence is determined. The FRET substrate is a peptide with commercially available fluorophore and quencher, on opposite sides of the BACE cleavage site. Proteolytic cleavage of the FRET substrate releases quenching of fluorescence (excitation […] and […]).

Series [2] deals with Aβ40 in conditioned medium of cells stably expressing Amyloid Precursor Protein (APP). The series is described as follows: In vitro BACE cell-based assay (HEK cell assay, Aβ40 sandwich ELISA). The following applies: Homo sapiens, HEK293; average IC50, Aβ40, 24 h incubation. Here is the method:
In Vitro BACE Cell-Based Assay
The cell-based assay measures inhibition or reduction of Aβ40 in conditioned medium of test compound treated cells expressing amyloid precursor protein.
Cells stably expressing Amyloid Precursor Protein (APP) were plated at a density of 40K cells/well in 96 well plates (Costar). The cells were cultivated for 24 hours at 37° C. and 5% CO2 in DMEM supplemented with 10% FBS. The test compounds were then added to cells in 10-point dose response concentrations with the starting concentration being either 100 μM or 10 μM. The compounds were diluted from stock solutions in DMSO and the final DMSO concentration of the test compounds on cells was 0.1%. After 24 h of incubation with the test compounds the supernatant conditioned media was collected and the Aβ 40 levels were determined using a sandwich ELISA. The IC50 of the compound was calculated from the percent of control or percent inhibition of Aβ 40 as a function of the concentration of the test compound.
The sandwich ELISA to detect Aβ 40 was performed in 96 well microtiter plates, which were pre-treated with goat anti-rabbit IgG (Pierce). The capture and detecting antibody pair that were used to detect Aβ 40 from cell supernatants were affinity purified pAb40 (Biosource) and biotinylated 6E10 (Signet Labs Inc.), respectively. The optimal concentration for the pAb40 antibody was 3 μg/ml in Superblock/TBS (Pierce) that was supplemented with 0.05% Tween 20 (Sigma). Optimal concentration for the detection antibody 6E10-biotinylated was 0.5 μg/ml in Superblock/TBS (Pierce) that had been supplemented with 2% normal goat serum and 2% normal mouse serum.
Cellular supernatants were incubated with the capture antibody for 3 h at 4° C., followed by 3 wash steps in TBS-tween (0.05%). The detecting antibody incubation was for 2 h at 4° C., again followed by the wash steps as described previously. The final readout of the ELISA is Time-Resolved Fluorescence (counts per minute) using Delfia reagents Streptavidin-Europium and Enhancement solutions (Perkin Elmer) and the Victor 2 multilabel counter (Perkin Elmer).

For the next series, the target named is T1, Cathepsin D (Homo sapiens, UniProt P07339).
T1 construct: made in house; host or cells: CHO cells
The series is described as follows: In vitro enzymatic Cat D (Cathepsin D) FRET assay. It is filed as biochemical. To be noted: average IC50, pH 3.5. As to the method: In Vitro Enzymatic Cat D (Cathepsin D) FRET (Fluorescence Resonance Energy Transfer) Assay
Recombinant CathepsinD was expressed in CHO cells. The assay buffer for CathepsinD is 0.05 M citrate pH 3.5, 10% DMSO final, 5 mM CHAPS. The CathepsinD enzyme (9 nM) is pre-incubated for one hour with inhibitors, typically in about 1 uL of DMSO according to a serial dilution, is added thereto. The assays are effectively started by the addition of different FRET substrates (20 nM for CathepsinD) and the combination is incubated for one hour. The FRET assay is terminated with by addition of Tris buffer, which raises the pH to neutrality, and the fluorescence is determined. The FRET substrate is a peptide with commercially available fluorophore and quencher, on opposite sides of the BACE cleavage site. The CathepsinD substrate peptide sequence is based on sequence #1 of Table 1 from Gulnik et al. FEBS Letters v413 p 379-384 1997. Proteolytic cleavage of the FRET substrate releases quenching of fluorescence (CathepsinD excitation 500 nm and emission 580 nm). […]

A further series concerns Abeta 40. In words: In vivo inhibition of beta-secretase: Abeta 40 reduction in rat CSF and brain. The following applies: after 4 hrs; for % reduction of rat CSF Abeta 40 levels at 10 mpk: Abeta 40, rat CSF; for % reduction of rat brain levels at 10 mpk: Abeta 40, rat brain. The text has this:
In Vivo Inhibition of Beta-Secretase
Several animal models, including mouse, rat, dog, and monkey, may be used to screen for inhibition of beta-secretase activity in vivo following administration of a test compound sample. Animals used in this invention can be wild type, transgenic, or gene knockout animals. For example, the Tg2576 mouse model, prepared and conducted as described in Hsiao et al., 1996, Science 274, 99-102, and other non-transgenic or gene knockout animals are useful to analyze in vivo inhibition of Amyloid beta peptide (Abeta) production in the presence of inhibitory test compounds. Generally, 2 to 18 month old Tg2576 mice, gene knockout mice or non-transgenic animals are administered test compounds formulated in vehicles, such as cyclodextran, phosphate buffers, hydroxypropyl methylcellulose or other suitable vehicles. One to twenty-four hours following the administration of compound, animals are sacrificed, and brains as well as cerebrospinal fluid (CSF) and plasma are removed for analysis of A-beta levels and drug or test compound concentrations (Dovey et al., 2001, Journal of Neurochemistry, 76, 173-181) Beginning at time 0, animals are administered by oral gavage, or other means of delivery such as intravenous injection, an inhibitory test compound of up to 100 mg/kg in a standard, conventional formulation, such as 2% hydroxypropyl methylcellulose, 1% Tween80. A separate group of animals receive 2% hydroxypropyl methylcellulose, 1% Tween80 alone, containing no test compound, and serve as a vehicle-control group. At the end of the test period, animals are sacrificed and brain tissues, plasma or cerebrospinal fluid are collected. Brains are either homogenized in 10 volumes (w/v) of 0.2% diethylamine (DEA) in 50 mM NaCl (Best et al., 2005, Journal of Pharmacology and Experimental Therapeutics, 313, 902-908), or in 10 volumes of 0.5% TritonX-100 in Tris-buffered saline (pH at about 7.6). Homogenates are centrifuged at 355,000 g, 4° C. for 30 minutes. CSF or brain supernatants are then analyzed for the presence of A-beta peptide by specific sandwich ELISA assays based on ECL (Electrochemiluminescence) technology. For example, rat Abeta40 is measured using biotinylated-4G8 (Signet) as a capture antibody and Fab40 (an in-house antibody specific to the C-terminal of Abeta40) as a detection antibody. For example, 4 hours after administration of 30 mg/kg oral dose of the test compound in 2% hydroxypropyl methylcellulose, 1% Tween80 (pH2.2) to 200 g male Sprague Dawley rats, amyloid beta peptide levels are measured for reduction by X % and Y % in cerebrospinal fluid and brain, respectively, when compared to the levels measured in the vehicle-treated rats.
Actual vehicles used: Oral: 2% HPMC, 1% Tween80, pH 2.2
The compounds of the invention may be shown to reduce the formation and/or deposition of amyloid beta peptide in the cerebrospinal fluid (CSF) as well as in the brain of a mouse or rat at either 3 mpk, 10 mpk or 30 mpk (mpk=mg compound per kg weight of the animal) dosing concentrations after 4 hrs.

Series [3] has as its system pigment epithelium of the rat's eye. To be noted: higher compound dose given for three months; cited from earlier work.
The conditions of series [4]: people of the terminated Ph I dosing trial; cited from earlier work.
The next series relates to beta amyloid. To be noted: patients in early stages of Alzheimer's Disease; cited from earlier work.

T1 sequence (P07339 65-412, species assumed): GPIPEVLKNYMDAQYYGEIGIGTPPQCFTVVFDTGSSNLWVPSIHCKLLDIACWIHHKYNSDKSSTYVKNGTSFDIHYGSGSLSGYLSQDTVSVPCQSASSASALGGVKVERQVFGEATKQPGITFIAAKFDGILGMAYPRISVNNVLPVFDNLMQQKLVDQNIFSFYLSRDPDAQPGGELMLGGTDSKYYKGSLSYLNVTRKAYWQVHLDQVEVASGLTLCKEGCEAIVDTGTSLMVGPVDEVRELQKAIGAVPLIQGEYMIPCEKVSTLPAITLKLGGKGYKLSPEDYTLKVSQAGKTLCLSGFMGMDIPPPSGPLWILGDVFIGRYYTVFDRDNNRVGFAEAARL
BACE 1 (beta secretase enzyme), sequence (P56817 46-501): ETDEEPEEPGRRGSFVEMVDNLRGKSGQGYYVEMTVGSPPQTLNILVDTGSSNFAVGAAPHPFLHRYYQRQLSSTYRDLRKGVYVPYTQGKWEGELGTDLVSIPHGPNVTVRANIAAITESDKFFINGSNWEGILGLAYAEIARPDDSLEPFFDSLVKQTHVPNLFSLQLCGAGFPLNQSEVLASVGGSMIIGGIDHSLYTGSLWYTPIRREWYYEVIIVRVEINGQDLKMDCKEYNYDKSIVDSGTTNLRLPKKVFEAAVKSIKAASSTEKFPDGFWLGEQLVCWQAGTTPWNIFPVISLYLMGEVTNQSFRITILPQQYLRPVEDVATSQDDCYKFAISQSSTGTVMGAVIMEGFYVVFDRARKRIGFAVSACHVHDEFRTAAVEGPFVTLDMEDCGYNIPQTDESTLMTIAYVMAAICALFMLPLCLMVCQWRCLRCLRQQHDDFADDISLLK

Take `COc1cnc2c(Nc3ccc4c(c3)[C@@]3(CCOC(N)=N3)c3cc(C5CC5)ncc3O4)nccc2c1` [Example 38]: the pIC50 (in general, the IC50 on a negative log10 scale, so that one unit is a factor of ten) in series [1] was 7.75; in series [2] it was 8.70; at Cathepsin D, 3.40. The “% reduction of rat CSF Abeta 40 levels at 10 mpk” value in the series with Abeta 40 stood at 39%. Besides, the “% reduction of rat brain levels at 10 mpk” value in the series with Abeta 40 was 25%.
In the case of `C[C@@]1(c2cc(-c3cncnc3)c(F)cc2F)CCSC(N)=N1` [LY 2811376], the “eye toxicity finding in rat” value in series [3] is reported as “damaged the pigment epithelium of the rat's eye”. Also, the “eye assessments in people” value in series [4] was “did not show any abnormalities”.
As for `COc1cnc2c(Nc3ccc4c(c3)[C@@]3(CCSC(N)=N3)c3cc(C5=CCCOC5)ncc3O4)nccc2c1` [Example 34, (5S)-3-(5,6-dihydro-2H-pyran-3-yl)-N~7~-(3-methoxy-1,7-naphthyridin-8-yl)-5′,6′-dihydrospiro[chromeno[2,3-c]pyridine-5,4′-[1,3]thiazine]-2′,7-diamine], the pIC50 in series [1] was 7.88; in series [2] it was 8.27; at Cathepsin D, 3.47. Besides, the “% reduction of rat CSF Abeta 40 levels at 10 mpk” value in the series with Abeta 40 is 44%. Moreover, the “% reduction of rat brain levels at 10 mpk” value with Abeta 40 is recorded as 5%.
In the case of `COc1cnc2c(Nc3ccc4c(c3)[C@@]3(CCOC(N)=N3)c3cc(C(C)C)ncc3O4)nccc2c1` [Example 36, (5S)-N~7~-(3-methoxy-1,7-naphthyridin-8-yl)-3-(1-methylethyl)-5′,6′-dihydrospiro[chromeno[2,3-c]pyridine-5,4′-[l,3]oxazine]-2′,7-diamine], the pIC50 was 7.95 in series [1], 8.57 in series [2] and 3.88 at Cathepsin D. In addition, the “% reduction of rat CSF Abeta 40 levels at 10 mpk” value in the series on Abeta 40 amounted to 58%. For the same compound, the “% reduction of rat brain levels at 10 mpk” value with Abeta 40 is recorded as 19%.
Consider “Solanezumab: a monoclonal antibody which targets and binds to the central region of beta amyloid; Phase III clinical molecule”, for which the “slowing of the rate of cognitive decline and memory loss” value with beta amyloid is listed as “approximately 30%”.

(Values after US9725469B2, “Amino-oxazine and amino-dihydrothiazine compounds as beta-secretase modulators and methods of use” (Amgen Inc., priority 2012, dated 2017).)
